{"source": "patent US9011945B2", "about": "“Composition and method for neuroprotection against excitotoxic injury” (priority 2008, dated 2015)", "key": {"[1]": {"test_system": "intrasynaptosomal Ca2+ concentration", "assay": "Intrasynaptosomal Ca2+ concentration, Fluo-3/AM (Example 1)", "type": "in vivo, mice", "conditions": "striatum, 4 hr after excitotoxic injury; control group 145.62%±7.16%; n=10", "experimental": "Intrasynaptosomal Ca^2+ concentration [Ca^2+]i was determined with the calcium-sensitive fluorochrome fluo-3-acetoxymethyl (Fluo-3/AM) in the presence of acetoxymethyl ester. First, 100 L of P2 synaptosomes was prepared as described above, and 2.5 mM Fluo-3/AM (Sigma, St. Louis, Mo.) was added to each well (final reaction volume of 250 L) and incubated at 37° C. for 30 min. Fluorescence was measured in a Microplate Fluorometer (Labsystems, Helsinki, Finland) with an excitation wavelength of 490 nm and an emission wavelength of 526 nm."}, "[2]": {"test_system": "NMDA-induced neurotoxicities", "assay": "Rotarod motor equilibrium performance with icv NMDA (Example 2)", "quoted_text": "Their neuroprotective effects were evaluated after pretreatment for fourteen days or one day prior to the intracerebroventricular injection (icy) of 8 mM NMDA (3 μl).\nOne day before the experiment, mice were tested through ten consecutive sessions to stay on the rod and reach the cut off time of 180 s. One day after injection, mice were tested again. The retention time, defined as total time (sec) remaining on the rod, was recorded at each session."}, "[3]": {"test_system": "Na+, K+-ATPase", "assay": "Na+, K+-ATPase activity of synaptosomes after excitotoxic injury (Example 1)", "type": "in vivo, mice", "conditions": "striatum synaptosomes 24 hr after excitotoxic injury", "experimental": "(§1) Twenty-four hours after excitotoxic injury, mice were sacrificed by rapid decapitation under anesthesia. The lesioned (left) hemisphere was dissected into striatal and nonstriatal areas. The contralateral hemisphere was then dissected into the corresponding parts. Synaptosomes were prepared essentially as described previously (Andersen J M, Myhre O, Fonnum F. 2003. Discussion of the role of the extracellular signal-regulated kinase-phospholipase A2 pathway in production of reactive oxygen species in Alzheimer's disease. Neurochem Res 28: 319-326.). Briefly, different regions of the brain were removed and placed on ice. […]\n(§2) ATPase activity was determined by measuring the amount of inorganic phosphate (Pi) released from the substrate ATP according to a previously described colorimetric method. The method permitted the quantification of Na^+, K^+-ATPase and Mg^2+-ATPase activity in the same sample. […] Optical density at 630 nm was determined by an ELISA reader (Dynatech MR-7000). The absorbance values obtained were converted to activity values by linear regression using a standard curve for sodium monobasic phosphate included in the assay at various concentrations. […] Protein concentration was determined colorimetrically with a commercial bicinchoninic acid kit (Pierce, Rockford, Ill.)."}, "[4]": {"test_system": "NMDA-induced seizures (icv NMDA)", "assay": "NMDA-induced seizure score (Example 2)", "type": "in vivo, mice", "conditions": "pretreatment before icv 8 mM NMDA (3 μl); control vehicle 90±10%", "description": "In NMDA-treated mice, seizures developed through a sequence of paroxysmal scratching, hypermotility and aircling, tonic-clonic convulsions and, occasionally, death. The following semi-quantitative scale was used for the examination of excitotoxic severity: 0, no response; 1, excessive grooming plus paroxysmal scratching; 2, mild hypermotility; 3, extensive hypermotility and circling; 4, forepaw clonus plus tail hypertonus; 5, generalized tonic-clonic convulsions; 6, “status epilepticus” and death (Marganella et al. 2005. Comparative effects of levobupivacaine and racemic bupivacaine on excitotoxic neuronal death in culture and N-methyl-D-aspartate-induced seizures in mice. Eur. J. Pharmacol. 518: 111-115). The latency (in sec) for generalized (clonic or tonic-clonic convulsions) seizures was also determined."}, "[5]": {"test_system": "synaptosomal reactive oxygen species", "assay": "Synaptosomal reactive oxygen species formation, DCFH-DA (Example 1)", "type": "in vivo, mice", "conditions": "mouse excitotoxic injury", "experimental": "as §1, with “ice. Specimens with the same areas and treatment conditions were pooled (n=2) and subjected to homogenization on ice in 10 volumes of 0.32M sucrose. Homogenates were centrifuged at 4° C. for 10 min at 600 g.” for “ice.”\nDichlorofluorescein-diacetate (DCFH-DA), a nonfluorescent cell-permeable compound, diffuses passively across cell membranes. […] Plates were incubated with shaking at 37° C. for 30 min before measurement of fluorescence using a Microplate Fluorometer (Labsystems, Helsinki, Finland) with an excitation wavelength of 488 nm, an emission wavelength of 525 nm, and a band width of 5 nm. […] Synaptosomal protein concentration was determined with Pierce BCA reagents according to instructions provided. […]"}, "[6]": {"test_system": "NMDA-induced neurotoxicities", "assay": "Elevated plus maze with icv NMDA (Example 2)", "quoted_text": "In this example, the combination of TP with M (memantine) in three different dosage ratios of 6:1, 3:1, and 10:1 respectively; these are TPM6 (TP 30 mg/kg/day:M 5 mg/kg/day), TPM3 (TP 15 mg/kg/day:M 5 mg/kg/day) and TPM10 (TP 30 mg/kg/day:M 3 mg/kg/day), respectively. Their neuroprotective effects were evaluated after pretreatment for fourteen days or one day prior to the intracerebroventricular injection (icy) of 8 mM NMDA (3 μl).\nFor testing, mice were individually placed in the center of the maze facing a closed arm and allowed 5 min of free exploration. The number of entries into open arms, the number of entries into closed arms, and the total time spent in the open arms and total time spent in the closed arms were measured. Entry was defined as all four paws in the arms."}, "[7]": {"test_system": "Mg2+-ATPase", "assay": "Mg2+-ATPase activity of synaptosomes after excitotoxic injury (Example 1)", "type": "in vivo, mice", "conditions": "striatum synaptosomes 24 hr after excitotoxic injury", "experimental": "as §1, §2"}, "[8]": {"test_system": "NMDA-decreased locomotor activities", "assay": "Open field locomotor activity test with icv NMDA (Example 2)", "quoted_text": "In this example, the combination of TP with M (memantine) in three different dosage ratios of 6:1, 3:1, and 10:1 respectively; these are TPM6 (TP 30 mg/kg/day:M 5 mg/kg/day), TPM3 (TP 15 mg/kg/day:M 5 mg/kg/day) and TPM10 (TP 30 mg/kg/day:M 3 mg/kg/day), respectively.\nA large colorless rectangular box with a metallic grid floor was used (70-cm wide, 90-cm long and 60-cm high). The photobeam activity monitors (TruScan coulbourn instruments) was used for measuring real-time X-Y activity track-type plots. Overall pulses were measured in an electromechanical counter as a gross measure of activity and recorded by a PC. Each mouse was allowed to move freely for 5 min but data were not scored, and then the number of squares crossed and the plots of tracking were counted during a period of 30 min for all experiments and quantification of data was by TruScan99 software."}, "[9]": {"test_system": "mitochondrial succinate reductase", "assay": "Mitochondrial reductase activity, MTT test (Example 1)", "type": "in vivo, mice", "conditions": "striatum, 24 hr after excitotoxic injury; control group 74.52%±4.86%", "experimental": "Twenty-four hours after excitotoxic injury, mice were sacrificed by rapid decapitation under anesthesia. The lesioned (left) hemisphere was dissected into striatal and nonstriatal areas. The contralateral hemisphere was then dissected into the corresponding parts. Synaptosomes were prepared essentially as described previously (Andersen J M, Myhre O, Fonnum F. 2003. Discussion of the role of the extracellular signal-regulated kinase-phospholipase A2 pathway in production of reactive oxygen species in Alzheimer's disease. Neurochem Res 28: 319-326.). Briefly, different regions of the brain were removed and placed on ice. Specimens with the same areas and treatment conditions were pooled (n=2) and subjected to homogenization on ice in 10 volumes of 0.32M sucrose. Homogenates were centrifuged at 4° C. for 10 min at 600 g. The supernatant was then diluted 1:1 with 1.3M sucrose to obtain a suspension with a final sucrose concentration of 0.8M. This suspension was subjected to centrifugation at 20,000 g for 30 min at 4° C., yielding a myelin-rich supernatant and a pellet (P2) consisting of synaptosomes free of myelin. […]\nMitochondrial metabolic function was assessed by the conversion of the dye methylthiazoletetrazolium (MTT) to purple formazan. […] The formation of formazan was quantitated spectrophotometrically at 570 nm using a Microplate Reader."}, "[10]": {"test_system": "NO levels", "assay": "NO levels of brain synaptosomes (Example 2)", "type": "in vivo, mice", "conditions": "FIG. 11E"}, "[11]": {"test_system": "mitochondrial membrane potential (ΔΨm)", "assay": "Mitochondrial membrane potential, DiOC6(3) (Example 1)", "type": "in vivo, mice", "conditions": "striatum, 24 hr after excitotoxic injury; control group 85.06%±2.58%", "experimental": "as §1\nMitochondrial membrane potential (ΔΨm) was measured using the fluorescent dye 3,3-diexyloxacarbocyanine iodide, DiOC6(3) (Chen Y C, Lin-Shiau S Y, Lin J K, 1998b. Involvement of reactive oxygen species and caspase 3 activation in arsenite-induced apoptosis. J Cell Physiol 177: 324-333.). Synaptosomes were prepared as described above and diluted 1:40 in Tris buffer, followed by the addition of DiOC6(3) to a final concentration of 1.5 M. After 20 min of incubation at 37° C., fluorescence was measured in a Microplate Fluorometer (Labsystems, Helsinki, Finland) with an excitation wavelength of 484 nm and an emission wavelength of 501 nm."}, "[12]": {"test_system": "excitotoxic injury (NMDA injected into the left striatum)", "assay": "Locomotor activity test before and after intrastriatal NMDA excitotoxic injury (Example 1)", "type": "in vivo", "conditions": "mice, oral gavage 2 days before intrastriatal NMDA; tested 24 hr after injury; n=8", "description": "Memantine hydrochloride (>98.5% white crystalline powder) was supplied by Lotus Pharmaceutical Co., Ltd. (Taipei, Taiwan). Tea polyphenols were isolated from Longjing green tea with the following composition: epigallocatechin, 14.69%; catechin, 1.13%; epigallocatechin-3-gallate, 41.34%; epicatechin, 5.47%; gallocatechin-3-gallate, 5.16%; epicatechin-3 gallate, 12.54%; coffein, 0.95%; and other catechin derivatives, 18% (Yeh C W, Chen W J, Chiang C T, Lin-Shiau S Y, Lin J K. 2003. Suppression of fatty acid synthase in MCF-7 breast cancer cells by tea and tea polyphenols: a possible mechanism for their hypolipidemic effects. Pharmacogenomics J 3: 267-276.). Memantine (10 mg/kg/day), tea polyphenol (60 mg/kg/day), or a combination (memantine 5 mg/kg/day plus tea polyphenol 30 mg/kg/day) was dissolved in distilled water and administered by oral gavage for 2 consecutive days before causing excitotoxic injury. The experimental design had 5 groups: the sham operation group, the control group, the memantine group, the tea polyphenol group, and the tea polyphenol plus memantine group.\nWeight and rectal temperature of each mouse were recorded before the surgical procedure. Anesthesia was induced with 5% chloral hydrate (400 mg/kg). […] Throughout the experimental procedure, mouse rectal temperature was monitored and maintained at 37.0° C.±0.5° C. […]"}}, "note": "Counter-ions that a name gives are not always drawn."}
{"smiles": "CC12CC3CC(C)(C1)CC(N)(C3)C2", "note": "[memantine, Memantine hydrochloride]", "values": [{"measurement": "intrasynaptosomal Ca2+ concentration [Ca2+]i", "setting": "[1]", "result": "123.04%±6.70%"}, {"measurement": "reversal of disturbance in rotarod motor equilibrium function induced by NMDA", "setting": "[2]; drug one day before and consecutive 14 days following NMDA, FIG. 10D", "result": "reversed"}, {"measurement": "motor equilibrium function, drug alone", "setting": "[2]; prolonged use alone, FIG. 8D", "result": "reduced the motor equilibrium function"}, {"measurement": "attenuation of decreased Na+, K+-ATPase activity", "setting": "[3]", "result": "only minimally attenuated"}, {"measurement": "attenuations of NMDA-induced seizure scores in percentage", "setting": "[4]", "result": "60±10", "unit": "%"}, {"measurement": "effect on increased synaptosomal ROS production", "setting": "[5]", "result": "does not have any significant effects"}, {"measurement": "attenuation of increased retention time in the opened plus maze by NMDA", "setting": "[6]; drug one day before and consecutive 14 days following NMDA, FIG. 10C", "result": "followed in order by TPM6, TPM10 and then M"}, {"measurement": "retention time in the open field of elevated plus maze, drug alone", "setting": "[6]; prolonged use alone, FIG. 8C", "result": "prominently increased retention time"}, {"measurement": "attenuation of decreased Mg2+-ATPase activity", "setting": "[7]", "result": "only minimally attenuated"}, {"measurement": "locomotor activities in the open field, drug alone", "setting": "[8]; consecutive 14 days, before NMDA, FIG. 7", "result": "increased locomotor activities"}, {"measurement": "reversal of decreased locomotor activities induced by NMDA", "setting": "[8]; drug one day before and consecutive 14 days following NMDA, FIG. 10A", "result": "partially reversed"}, {"measurement": "reversal of decrease in jump activity induced by NMDA", "setting": "[8]; drug one day before and consecutive 14 days following NMDA, FIG. 10B", "result": "partially reversed"}, {"measurement": "order of neuroprotective potencies against NMDA-decreased locomotor activities", "setting": "[8]; pretreatment 14 days, FIG. 8A", "result": "TPM10>TPM6>TPM3>M"}, {"measurement": "order of neuroprotective potencies against the decreased jump exploratory effect of NMDA", "setting": "[8]; pretreatment 14 days, FIG. 8B", "result": "M>TPM6>TPM3>TPM10"}, {"measurement": "NMDA-decreased locomotor activities, prevention by pretreatment", "setting": "[8]; pretreatment 14 days, icv 3 μl of 8 mM NMDA", "result": "prevented"}, {"measurement": "decrease in jump activity, drug alone", "setting": "[8]; pretreatment alone for consecutive 14 days, FIG. 8B", "result": "TPM6>M>TPM10"}, {"measurement": "mitochondrial reductase activity (MTT test)", "setting": "[9]", "result": "93.53%±8.53%"}, {"measurement": "NO levels of brain synaptosomes increased by NMDA", "setting": "[10]", "result": "decreased"}, {"measurement": "mitochondrial membrane potential (ΔΨm)", "setting": "[11]", "result": "94.23%±4.19%"}, {"measurement": "improvement of impaired locomotor activity after excitotoxic injury", "setting": "[12]", "result": "substantial but nonsignificant improvement"}]}
